This is an account of results in the NIST ThermoML archive (doi:10.1021/je900405j).

± gives the expanded uncertainty stated by the source.

For this data set the following is noted: for viscosity: 101.33 kPa, Cone and plate viscometry; for viscosity / surface tension liquid-gas: Liquid; for surface tension liquid-gas: 293 K; for Normal melting temperature: Crystal; for Normal melting temperature / Glass transition temperature: DTA.

With `CCn1cc[n+](C)c1.F[B-](F)(F)F` [1-ethyl-3-methylimidazolium tetrafluoroborate], the surface tension liquid-gas is 53 ± 7 mN/m. Besides, the viscosity (290 K) is reported as 46 ± 10 mPa·s. The viscosity (295 K) came out at 41 ± 10 mPa·s. Besides, where the note is “300 K”, the viscosity amounted to 32 ± 10 mPa·s. Besides, where the note is “305 K”, the viscosity is 31 ± 10 mPa·s. The viscosity (310 K) was 27 ± 10 mPa·s. Also, the viscosity (315 K) came to 24 ± 10 mPa·s. Besides, the viscosity (320 K) turned out to be 22 ± 10 mPa·s. Further, under “325 K”, the viscosity worked out at 21 ± 10 mPa·s. Where the note is “330 K”, the viscosity was found to be 19 mPa·s. Moreover, the viscosity (335 K) is reported as 18 mPa·s. Further, where the note is “340 K”, the viscosity is given as 18 mPa·s. Further, under “345 K”, the viscosity was 16 mPa·s. In addition, the viscosity (350 K) was determined as 15 mPa·s. The viscosity (355 K) was determined as 15 mPa·s. For the same compound, the viscosity (360 K) is listed as 15 mPa·s. In addition, the viscosity (365 K) turned out to be 13 mPa·s.

In the case of `CCCC[N+]1(C)CCCC1.FC(F)(F)C(F)(F)[P-](F)(F)(F)(C(F)(F)C(F)(F)F)C(F)(F)C(F)(F)F`, the surface tension liquid-gas is 38 ± 5 mN/m, the Normal melting temperature was 4 ± 2 °C and the Glass transition temperature is -116 ± 3 °C. Further, the viscosity (290 K) worked out at 355 ± 17 mPa·s. The viscosity (295 K) turned out to be 272 ± 14 mPa·s. In addition, the viscosity (300 K) was determined as 209 ± 12 mPa·s. In addition, the viscosity (305 K) is listed as 163 ± 11 mPa·s. The viscosity (310 K) is 129 ± 10 mPa·s. In addition, the viscosity (315 K) is reported as 105 ± 10 mPa·s. Also, the viscosity (320 K) came to 87 ± 10 mPa·s. Moreover, under “325 K”, the viscosity amounted to 72 ± 10 mPa·s. Also, the viscosity (330 K) was determined as 62 ± 10 mPa·s. In addition, the viscosity (335 K) is given as 53 ± 10 mPa·s. For the same compound, where the note is “340 K”, the viscosity was found to be 47 ± 10 mPa·s. For the setting “345 K”, the viscosity came to 41 ± 10 mPa·s. Moreover, for the setting “350 K”, the viscosity came to 37 ± 10 mPa·s. Further, for the setting “355 K”, the viscosity amounted to 34 ± 10 mPa·s. Where the note is “360 K”, the viscosity amounted to 30 ± 10 mPa·s. For the same compound, where the note is “365 K”, the viscosity came to 28 ± 10 mPa·s.

With `CCC[n+]1ccn(C)c1C.O=S(=O)([N-]S(=O)(=O)C(F)(F)F)C(F)(F)F`, the surface tension liquid-gas is listed as 41 ± 6 mN/m, the Normal melting temperature came out at 8 ± 2 °C and the Glass transition temperature was -109 ± 20 °C. For the same compound, where the note is “290 K”, the viscosity is 131 ± 10 mPa·s. In addition, under “295 K”, the viscosity worked out at 106 ± 10 mPa·s. In addition, the viscosity (300 K) was determined as 85 ± 10 mPa·s. Besides, under “305 K”, the viscosity is 69 ± 10 mPa·s. Besides, the viscosity (310 K) stood at 58 ± 10 mPa·s. Further, the viscosity (315 K) came to 49 ± 10 mPa·s. Besides, the viscosity (320 K) is 42 ± 10 mPa·s. Moreover, for the setting “325 K”, the viscosity is given as 37 ± 10 mPa·s. For the same compound, the viscosity (330 K) is 33 ± 10 mPa·s. Moreover, the viscosity (335 K) worked out at 29 ± 10 mPa·s. Further, the viscosity (340 K) turned out to be 27 ± 10 mPa·s. For the same compound, the viscosity (345 K) turned out to be 24 ± 10 mPa·s. The viscosity (350 K) was 23 ± 10 mPa·s. In addition, the viscosity (355 K) amounted to 21 ± 10 mPa·s. The viscosity (360 K) is on record as 20 mPa·s. Where the note is “365 K”, the viscosity is reported as 19 mPa·s.

Turning to `CCn1cc[n+](C)c1.N#CN=C=[N-]` [1-ethyl-3-methylimidazolium dicyanamide], the surface tension liquid-gas turned out to be 64 ± 9 mN/m, the Normal melting temperature was -18 ± 2 °C and the Glass transition temperature is -96 ± 3 °C. The viscosity (290 K) is 24 mPa·s. Also, under “295 K”, the viscosity stood at 21 mPa·s. The viscosity (300 K) was found to be 19 mPa·s. The viscosity (305 K) is recorded as 18 mPa·s. Further, the viscosity (310 K) came out at 17 mPa·s. For the same compound, the viscosity (315 K) is 16 mPa·s. Further, the viscosity (320 K) was 15 mPa·s. The viscosity (325 K) was 15 mPa·s. For the same compound, the viscosity (330 K) came to 14 mPa·s. The viscosity (335 K) is recorded as 14 mPa·s. Further, the viscosity (340 K) was 13 mPa·s. Besides, for the setting “345 K”, the viscosity is reported as 13 mPa·s. Besides, the viscosity (350 K) is reported as 12 mPa·s. Also, the viscosity (355 K) is 12 mPa·s. In addition, the viscosity (360 K) was determined as 12 mPa·s. Also, the viscosity (365 K) was 12 mPa·s.
